pIC50: −log10 of the molar value.

Series [1] deals with HT-29 (human colon adenocarcinoma cells). The series can be described thus: WST-1 proliferation assay (Example 10), HT-29. The format is cell-based. To be noted: WST-1, 48 hours. The protocol: (§1) Cancer cells used herein were KMS34 (human myeloma cells), HeLa (human cervical cancer cells), HCT116 (human colon cancer cells; p53+/+), KATOIII (human stomach cancer cells), MDA-MB-231 (human breast cancer cells), HT-29 (human colon adenocarcinoma cells), PANC-1 (human pancreatic cancer cells), and Li-7 (human liver cancer cells). Proliferation assay of various cancer cells was performed by the WST-1 method (Cook, J A. & Mitchell, J B., Anal. Biochem., 179, 1-7, 1984) as follows. One μ1 each of PEG11(E)-TC11 and PEG11(O)-TC11 prepared in advance at target concentrations was added into each well of a 96-well microplate. Medium was added to the wells at 50 μl per well, and then mixed by tapping lightly the plate. Subsequently, KMS34 was prepared at a concentration of 5×10^5 cells/ml, and cells other than KMS34 were prepared at a concentration of 2×10^5 cells/ml. Cells were seeded at 50 μl per well (2.5×10^4 cells, 1×10^4 cells), and then incubated in a CO2 incubator (37° C., 5% CO2) for 48 hours. […] Subsequently, the plate was shaken with a plate reader for 1 minute, and then absorbance was measured at 450 nm. At this time, absorbance was also measured at 595 nm as a reference wavelength. The net absorbance was obtained by subtracting the absorbance at the reference wavelength from the absorbance at 450 nm.
(In general: Tetrazolium assays rely on reduction of a dye to a coloured formazan, in cell work by metabolically active cells.)

For series [2], the system named is high-risk MM cells (KMS34). The series can be described thus: WST-1 proliferation assay (Example 11), KMS34. To be noted: WST-1, 48 hours, FIG. 6. The format is cell-based, human. The protocol: (§2) Proliferation assay of cancer cells and normal cells was performed using WST-1 as follows. One μ1 each of PEG11(E)-TC11 and TC11 prepared at target concentrations was added to each well of a 96-well microplate. Medium was added to the wells at 50 μl per well, and then mixed by tapping lightly the plate. Next, high-risk MM cells (KMS34) prepared at 5×10^5 cells/ml and bone marrow stromal cell-derived normal cells (WT) prepared at 2×10^5 cells/ml were seeded at 50 μl (2.5×10^4 cells and 1×10^4 cells, respectively) per well, and then incubated in a CO2 incubator (37° C., 5% CO2) for 48 hours. Ten (10) μ1 each of cell proliferation reagent WST-1 (Roche) was added to each well after incubation, and then the resultants were mixed by lightly tapping the plate, followed by 1 hour of reaction in the CO2 incubator. Subsequently, the plate was shaken with a plate reader for 1 minute, and then absorbance was measured at 450 nm. At this time, absorbance was also measured at 595 nm as a reference wavelength. The net absorbance was obtained by subtracting the absorbance at the reference wavelength from the absorbance at 450 nm.

Series [3] deals with HCT116 (human colon cancer cells; p53+/+). The series is described as follows: WST-1 proliferation assay (Example 10), HCT116. Type of series: cell-based. To be noted: HCT-116, WST-1, 48 hours. The protocol: as §1
For series [4], the system named is high-risk MM cells (MUM24). The series is described as follows: Apoptosis induction, Annexin V/PI flow cytometry. Type of series: cell-based, human. To be noted: MUM24, 10 μM, 24, 48 and 72 hours. The protocol: For observation of apoptosis induction caused by drugs, TC11 and PEG11(E)-TC11, one type of MM cells, MUM24 cells were treated with TC11 and PEG11(E)-TC11, Annexin V/PI staining was performed, and then analysis was conducted using a flow cytometer. More specifically, MUM24 was adjusted at 2.0×10^5 cells/mL, and then 1.95 mL each thereof was seeded to a 6-well plate. From the next day, TC11 and PEG11(E)-TC11 were added in such a manner that the final concentrations were 0, and 10 μM, and then cells were cultured at 37° C. for 24, 48, and 72 hours. Each cell (1.5 ml each) was collected, and then washed twice with Phosphate Buffered Saline (PBS, Sigma-Aldrich). Subsequently, each resultant was suspended again in a solution prepared by adding 5 μL of Annexin V-FITC and 5 μL of Propidium Iodide (PI) to 500 μL of 1×Binding Buffer in Annexin V-FITC Apoptosis Detection Kit (Bio Vision, California, USA), and then left to stand in the dark for 5 minutes. Fluorescence intensity was measured using BD™ LSR II Flow Cytometer (Becton, Dickinson and company, New Jersey, USA). Wavelengths to be measured were excitation wavelength of 488 nm, and fluorescence wavelengths of 530±15 nm for Annexin V-FITC and 610±10 nm for PI.
In general terms: A flow cytometer gives signals particle by particle.

In series [5] the test system is KATOIII (human stomach cancer cells). The series can be described thus: WST-1 proliferation assay (Example 10), KATOIII. The format is cell-based. To be noted: KATO III, WST-1, 48 hours. The protocol:
as §1

Series [6] concerns HeLa (human cervical cancer cells). The series can be described thus: WST-1 proliferation assay (Example 10), HeLa. The format is cell-based. To be noted: WST-1, 48 hours. The protocol: as §1
A further series has as its system MUM24 cells. The series is described as follows: Cell cycle, DNA content by flow cytometry. To be noted: MUM24, 3 μM, 12, 24 and 36 hours. Type of series: cell-based, human. The protocol:
The present inventors have reported that when HeLa cells of a human cervical cancer-derived cell line are treated with TC11, multipolarization and then multinucleation take place (Shiheido, H. et al., PLoS One, 7: e38878, 2012). The present inventors have also reported in the same paper α-tubulin and NPM1 as binding molecules for TC11. Next, intracellular DNA content was measured using flow cytometry in order to examine the effects of TC11 and its derivative, PEG11(E)-TC11 on cell cycle. More specifically, MUM24 was adjusted at 4.0×10^5 cells/mL, 1.95 mL each of MUM24 was seeded to a 6-well plate. From the next day, TC11 and PEG11(E)-TC11 were added in such a manner that the final concentrations were 0 and 3 μM, respectively, and then cells were cultured at 37° C. for 12, 24, and 36 hours. Each cell was collected, and then washed with PBS. 70% EtOH ([…]) was added and then the resultant was left to stand overnight at −30° C. After washing with PBS, […] of citrate-phosphate buffer was added, and then the resultant was left to stand at room temperature for 30 minutes, thereby eluting fragmented DNA. […] Fluorescence intensity was measured using BD FACS Calibur (Trademark) (Becton, Dickinson and company, New Jersey, USA). Wavelengths for measurement were an excitation wavelength of 488 nm, and a fluorescence wavelength of 610±10 nm.

Series [7] has as its system bone marrow stromal cell-derived normal cells (WT). The series can be described thus: WST-1 proliferation assay (Example 11), normal cells. Type of series: cell-based. To be noted: WST-1, 48 hours, FIG. 6. The protocol:
as §2

Broadly, the pIC50 is the negative decadic logarithm of the IC50, by convention in mol/L. Low values mean a large IC50, high ones a small IC50. For `COCCOCCOCCOCCOCCOCCOCCOCCOCCOCCOCCOCCC(=O)OCCOc1cc2c(cc1N)C(=O)N(c1c(C(C)C)cccc1C(C)C)C2=O` [PEG11(E)-TC11], the negative-log IC50 (pIC50) is 4.69 in series [1], 5.05 in series [3], 5.10 in series [5] and 5.27 in series [6]. The “Proliferation inhibitory activity against high-risk MM cells (KMS34)” value in series [2] is given as “significant proliferation inhibitory activity”. For the same molecule, the “Apoptosis induction (Annexin V+/PI− and Annexin V+/PI+ fractions)” value in series [4] was “clearly induce apoptosis”. Also, the “Effect on cell cycle (proportion of tetraploid cells)” value with MUM24 cells was “induce cell death by causing G2/M phase arrest”. Also, the “Proliferation inhibitory activity against bone marrow stromal cell-derived normal cells (WT)” value in series [7] is on record as “no proliferation inhibitory activity”.
As to `COCCOCCOCCOCCOCCOCCOCCOCCOCCOCCOCCOCCOc1cc2c(cc1N)C(=O)N(c1c(C(C)C)cccc1C(C)C)C2=O` [PEG11(O)-TC11], the pIC50 in series [1] was 4.94; in series [3] it was 4.46; in series [5], 4.68; in series [6] it was 4.74.
As to `CC(C)c1cccc(C(C)C)c1N1C(=O)c2ccc(N)cc2C1=O` [TC11, 2-(2,6-di-isopropylphenyl)-5-amino-1H-isoindole-1,3-dione, reference compound], in series [2], the “Proliferation inhibitory activity against high-risk MM cells (KMS34)” value was “significant proliferation inhibitory activity”. Further, the “Apoptosis induction (Annexin V+/PI− and Annexin V+/PI+ fractions)” value in series [4] is “clearly induce apoptosis”. Moreover, the “Effect on cell cycle (proportion of tetraploid cells)” value with MUM24 cells is “induce cell death by causing G2/M phase arrest”. Also, the “Proliferation inhibitory activity against bone marrow stromal cell-derived normal cells (WT)” value in series [7] is reported as “no proliferation inhibitory activity”.
